Assay results reported in patent US20120219615A1, “Therapeutic Use of a TLR Agonist and Combination Therapy” (The Trustees of the University of Pennsylvania, priority 2010, published 2012).

System: G-CSF, MCP-1, MIP-1β, TNFα
Experiment: Phase I clinical study: pharmacodynamic response, plasma immune mediators (MAP)
Type: in vivo
Details: human, s.c., first dose
Method: Study Procedures: VTX-2337 was administered weekly via subcutaneous injection on Days 1, 8, and 15 of a 28-day dosing cycle for two cycles. Using a modified Fibonacci dose-escalation scheme, successive cohorts received doses ranging from 0.1 mg/m^2 to 3.9 mg/m^2 of VTX-2337. Plasma samples were collected for pharmacokinetic analysis after the first dose of the first treatment cycle and for pharmacodynamic analyses after the first dose of the first and second treatment cycles.
To evaluate the pharmacodynamic (PD) response to VTX-2337, blood was collected at 0, 4, 8, 24 hours after subcutaneous administration of the first dose of the first cycle of VTX-2337. Plasma levels of immune mediators were quantified using the human multiple analyte panel (MAP), version 1.8 (Rules Based Medicine). […] Levels of mediators in plasma collected from 9 healthy volunteers are shown for comparison to the oncology population. […]

## CCCN(CCC)C(=O)C1=Cc2ccc(-c3ccc(C(=O)N4CCCC4)cc3)cc2N=C(N)C1 [VTX-2337, 2-amino-N,N-dipropyl-8-(4-(pyrrolidine-1-carbonyl)phenyl)-3H-benzo[b]azepine-4-carboxamide]
Cohort 1 (0.1 mg/m^2), 0 Hr
  G-CSF plasma level: 9.7 ± 1.9 pg/mL
  MCP-1 plasma level: 247 ± 62.7 pg/mL
  MIP-1β plasma level: 201 ± 73.8 pg/mL
  TNFα plasma level: 11.4 ± 4.4 pg/mL
Cohort 1 (0.1 mg/m^2), 4 Hr
  G-CSF plasma level: 8.6 ± 1.6 pg/mL
  MCP-1 plasma level: 223 ± 58.8 pg/mL
  MIP-1β plasma level: 196 ± 71.9 pg/mL
  TNFα plasma level: 10.5 ± 2.6 pg/mL
Cohort 1 (0.1 mg/m^2), 8 Hr
  G-CSF plasma level: 11.9 ± 4.4 pg/mL
  MCP-1 plasma level: 280 ± 97.0 pg/mL
  MIP-1β plasma level: 204 ± 74.0 pg/mL
  TNFα plasma level: 10.3 ± 4.0 pg/mL
Cohort 1 (0.1 mg/m^2), 24 Hr
  G-CSF plasma level: 9.2 ± 2.5 pg/mL
  MCP-1 plasma level: 250 ± 85.0 pg/mL
  MIP-1β plasma level: 207 ± 73.8 pg/mL
  TNFα plasma level: 10.2 ± 3.6 pg/mL
Cohort 2 (0.2 mg/m^2), 0 Hr
  G-CSF plasma level: 7.8 ± 3.2 pg/mL
  MCP-1 plasma level: 245 ± 167 pg/mL
  MIP-1β plasma level: 230 ± 84.0 pg/mL
  TNFα plasma level: 9.7 ± 5.7 pg/mL
Cohort 2 (0.2 mg/m^2), 4 Hr
  G-CSF plasma level: 11.5 ± 7.8 pg/mL
  MCP-1 plasma level: 235 ± 84.6 pg/mL
  MIP-1β plasma level: 239 ± 74.0 pg/mL
  TNFα plasma level: 10.8 ± 5.0 pg/mL
Cohort 2 (0.2 mg/m^2), 8 Hr
  G-CSF plasma level: 19.0 ± 16.5 pg/mL
  MCP-1 plasma level: 298 ± 100 pg/mL
  MIP-1β plasma level: 247 ± 84.7 pg/mL
  TNFα plasma level: 10.5 ± 6.0 pg/mL
Cohort 2 (0.2 mg/m^2), 24 Hr
  G-CSF plasma level: 15.4 ± 9.0 pg/mL
  MCP-1 plasma level: 301 ± 159 pg/mL
  MIP-1β plasma level: 280 ± 115 pg/mL
  TNFα plasma level: 12.4 ± 6.1 pg/mL
Cohort 3 (0.4 mg/m^2), 0 Hr
  G-CSF plasma level: 12.7 ± 6.0 pg/mL
  MCP-1 plasma level: 129 ± 30.0 pg/mL
  MIP-1β plasma level: 172 ± 59.0 pg/mL
  TNFα plasma level: 9.0 ± 4.9 pg/mL
Cohort 3 (0.4 mg/m^2), 4 Hr
  G-CSF plasma level: 9.5 ± 0.9 pg/mL
  MCP-1 plasma level: 137 ± 30.7 pg/mL
  MIP-1β plasma level: 215 ± 65.6 pg/mL
  TNFα plasma level: 10.8 ± 3.3 pg/mL
Cohort 3 (0.4 mg/m^2), 8 Hr
  G-CSF plasma level: 63.8 ± 60.1 pg/mL
  MCP-1 plasma level: 251 ± 87.9 pg/mL
  MIP-1β plasma level: 213 ± 88.8 pg/mL
  TNFα plasma level: 9.6 ± 3.1 pg/mL
Cohort 3 (0.4 mg/m^2), 24 Hr
  G-CSF plasma level: 15.8 ± 3.5 pg/mL
  MCP-1 plasma level: 99.5 ± 6.9 pg/mL
  MIP-1β plasma level: 173 ± 67.4 pg/mL
  TNFα plasma level: 10.0 ± 2.9 pg/mL
Cohort 4 (0.8 mg/m^2), 0 Hr
  G-CSF plasma level: 13.2 ± 8.9 pg/mL
  MCP-1 plasma level: 260 ± 150 pg/mL
  MIP-1β plasma level: 165 ± 63.9 pg/mL
  TNFα plasma level: 16.7 ± 12.6 pg/mL
Cohort 4 (0.8 mg/m^2), 4 Hr
  G-CSF plasma level: 49.8 ± 80.3 pg/mL
  MCP-1 plasma level: 1037 ± 1920 pg/mL
  MIP-1β plasma level: 450 ± 641 pg/mL
  TNFα plasma level: 22.0 ± 14.6 pg/mL
Cohort 4 (0.8 mg/m^2), 8 Hr
  G-CSF plasma level: 137 ± 124 pg/mL
  MCP-1 plasma level: 673 ± 386 pg/mL
  MIP-1β plasma level: 287 ± 177 pg/mL
  TNFα plasma level: 19.0 ± 10.6 pg/mL
Cohort 4 (0.8 mg/m^2), 24 Hr
  G-CSF plasma level: 35.7 ± 14.7 pg/mL
  MCP-1 plasma level: 267 ± 104 pg/mL
  MIP-1β plasma level: 183 ± 55.9 pg/mL
  TNFα plasma level: 17.5 ± 8.7 pg/mL
